Measured values reported in the supplement of paper PMC10307832.

Columns and labels:
Assay in all cases: relative viability (nuclei count vs DMSO), 5 days (fraction); higher = more cells survive
[1] = compound: C=C(c1ccc(C(=O)O)cc1)c1cc2c(cc1C)C(C)(C)CCC2(C)C [Bexarotene] + COc1cccc2cc(-c3nc([C@H]4CC[C@H](C(=O)O)CC4)n4ncnc(N)c34)[nH]c12 [OSI-027] (partner 0.5 µM)
In short: (§1)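 After 5 days of treatment, lung cancer cells in 1536-well plates were fixed and stained in a single step (final 0.05% Triton X-100, 1% formaldehyde, 1 ug/ml Hoechst) and their nuclei counted on 4× images. Treatment had been applied by pin tool the day after seeding as one drug alone or as a fixed anchor-drug dose with five library-drug doses (not always all listed) in √10 steps. Relative viability is the nuclei count of treated wells divided by that of vehicle wells, and values are medians of duplicate plates.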

[2] = compound: C=C(c1ccc(C(=O)O)cc1)c1cc2c(cc1C)C(C)(C)CCC2(C)C [Bexarotene] + C[C@@H](Oc1cc(-c2cnn(C3CCNCC3)c2)cnc1N)c1c(Cl)ccc(F)c1Cl [Crizotinib] (partner 1 µM)
In short: as §1

[3] = compound: C=C(c1ccc(C(=O)O)cc1)c1cc2c(cc1C)C(C)(C)CCC2(C)C [Bexarotene] + N=C(N)NC(=N)NCCc1ccccc1 [Phenformin] (partner 250 µM)
In short: as §1

[4] = compound: C=C(c1ccc(C(=O)O)cc1)c1cc2c(cc1C)C(C)(C)CCC2(C)C [Bexarotene] + CC(=O)Nc1cccc(-n2c(=O)n(C3CC3)c(=O)c3c(Nc4ccc(I)cc4F)n(C)c(=O)c(C)c32)c1 [Trametinib] (partner 0.02 µM)
In short: as §1

Cell Line	relative viability ([1]; first compound 0.08 µM)	relative viability ([1]; first compound 0.253 µM)	relative viability ([1]; first compound 0.8 µM)	relative viability ([1]; first compound 2.53 µM)	relative viability ([1]; first compound 8 µM)	relative viability ([2]; first compound 0.08 µM)	relative viability ([2]; first compound 0.253 µM)	relative viability ([2]; first compound 0.8 µM)	relative viability ([2]; first compound 2.53 µM)	relative viability ([2]; first compound 8 µM)	relative viability ([3]; first compound 0.08 µM)	relative viability ([3]; first compound 0.253 µM)	relative viability ([3]; first compound 0.8 µM)	relative viability ([3]; first compound 2.53 µM)	relative viability ([3]; first compound 8 µM)	relative viability ([4]; first compound 0.08 µM)	relative viability ([4]; first compound 0.253 µM)	relative viability ([4]; first compound 0.8 µM)	relative viability ([4]; first compound 2.53 µM)	relative viability ([4]; first compound 8 µM)
201T	0.852	0.445	0.757	0.639	0.474	0.994	0.882	0.974	0.958	0.982	0.582	0.516	0.5	0.519	0.458	0.751	0.724	0.713	0.704	0.643
A-427	0.448	0.462	0.455	0.449	0.415	0.855	0.86	0.761	0.798	0.848	0.322	0.305	0.348	0.3	0.307	0.726	0.643	0.629	0.517	0.599
ABC-1	0.466	0.582	0.565	0.362	0.449	1.02	0.893	0.853	1.3	0.829	0.239	0.225	0.215	0.303	0.285	–	–	–	–	–
BEN	0.294	0.309	0.292	0.266	0.254	0.786	0.737	0.768	0.708	0.662	0.289	0.27	0.268	0.214	0.279	0.994	1.02	0.943	0.804	0.997
CAL-12T	0.523	0.416	0.49	0.439	0.441	0.73	0.608	0.466	0.564	0.489	0.578	0.511	0.572	0.513	0.519	0.349	0.286	0.319	0.233	0.319
COR-L23	0.807	0.883	0.579	0.679	0.715	0.747	0.633	0.605	0.498	0.558	0.411	0.512	0.395	0.383	0.364	0.747	0.72	0.501	0.553	0.547
COR-L 105	0.765	0.677	0.818	0.8	0.613	0.863	0.951	0.88	0.857	0.699	0.614	0.472	0.519	0.517	0.569	0.48	0.426	0.478	0.451	0.465
Calu-6	–	–	–	–	–	0.786	0.753	0.72	0.823	0.94	–	–	–	–	–	–	–	–	–	–
ChaGo-K-1	0.651	0.676	0.715	0.545	0.611	1.19	1.23	1.15	–	1.15	0.563	0.496	0.539	0.533	0.536	1.02	1.02	0.978	1.05	0.932
EKVX	0.706	0.661	0.698	0.63	0.648	0.83	1.06	0.819	1.12	0.701	0.257	0.263	0.224	0.233	0.233	0.291	0.359	0.355	0.372	0.295
EMC-BAC-2	0.416	0.42	0.385	0.367	0.419	0.742	0.806	0.633	0.706	0.667	0.549	0.575	0.521	0.49	0.546	1.08	0.901	0.996	–	0.88
EPLC-272H	0.292	0.277	0.26	0.283	0.272	0.877	0.971	0.854	0.853	0.772	0.304	0.27	0.313	0.3	0.373	0.318	0.277	0.285	0.322	0.314
H3255	0.714	0.538	0.598	0.585	0.6	0.882	0.92	0.958	0.989	0.959	0.391	0.336	0.382	0.419	0.416	0.715	0.759	0.615	0.626	0.674
HARA	0.502	0.494	0.311	0.368	0.423	1.15	0.993	0.885	0.948	0.798	0.523	0.448	0.375	0.398	0.39	0.902	0.895	0.642	0.989	0.602
HCC-15	0.792	0.806	0.631	0.621	0.632	0.842	0.924	0.789	0.837	0.783	0.524	0.533	0.472	0.496	0.475	0.372	0.431	0.371	0.371	0.365
HCC-44	0.58	0.589	0.553	0.496	0.502	0.766	0.82	0.824	0.782	0.776	0.148	0.409	0.27	0.145	0.289	1.02	1.03	0.884	0.899	1.08
HCC-78	0.389	0.325	0.331	0.34	0.399	0.317	0.308	0.375	0.305	0.33	1.01	0.732	0.599	0.596	0.73	0.833	0.952	0.545	0.708	0.861
